# Experimental data published in PubChem BioAssay (NCI).
#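 Here, GI50 denotes the concentration required for 50% inhibition of growth. TGI: total growth inhibition.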
# What was measured:
# Assay in all cases: inhibition of tumour cell growth, NCI panel, 384-well format
# 786-0 renal = system: 786-0 renal
# A498 renal = system: A498 renal
# A549 NSCLC = system: A549 NSCLC
# ACHN renal = system: ACHN renal
# BT-549 breast = system: BT-549 breast
# CAKI-1 renal = system: CAKI-1 renal
# CCRF-CEM leukemia = system: CCRF-CEM leukemia
# DU-145 prostate = system: DU-145 prostate
# EKVX NSCLC = system: EKVX NSCLC
# HCT-116 colon = system: HCT-116 colon
# HCT-15 colon = system: HCT-15 colon
# HL-60(TB) leukemia = system: HL-60(TB) leukemia
# HOP-62 NSCLC = system: HOP-62 NSCLC
# HOP-92 NSCLC = system: HOP-92 NSCLC
# HS 578T breast = system: HS 578T breast
# HT29 colon = system: HT29 colon
# IGROV1 ovarian = system: IGROV1 ovarian
# K-562 leukemia = system: K-562 leukemia
# KM12 colon = system: KM12 colon
# LOX IMVI melanoma = system: LOX IMVI melanoma
# M14 melanoma = system: M14 melanoma
# MALME-3M melanoma = system: MALME-3M melanoma
# MCF7 breast = system: MCF7 breast
# MDA-MB-231 breast = system: MDA-MB-231 breast
# MDA-MB-435 melanoma = system: MDA-MB-435 melanoma
# MDA-MB-468 breast = system: MDA-MB-468 breast
# MOLT-4 leukemia = system: MOLT-4 leukemia
# NCI-H226 lung = system: NCI-H226 lung
# NCI-H23 lung = system: NCI-H23 lung
# NCI-H322M lung = system: NCI-H322M lung
# NCI-H522 lung = system: NCI-H522 lung
# NCI/ADR-RES ovarian = system: NCI/ADR-RES ovarian
# OVCAR-3 ovarian = system: OVCAR-3 ovarian
# OVCAR-4 ovarian = system: OVCAR-4 ovarian
# OVCAR-5 ovarian = system: OVCAR-5 ovarian
# OVCAR-8 ovarian = system: OVCAR-8 ovarian
# PC-3 prostate = system: PC-3 prostate
# RPMI-8226 leukemia = system: RPMI-8226 leukemia
# RXF 393 renal = system: RXF 393 renal
# SF-268 CNS = system: SF-268 CNS
# SF-295 CNS = system: SF-295 CNS
# SF-539 CNS = system: SF-539 CNS
# SK-MEL-2 melanoma = system: SK-MEL-2 melanoma
# SK-MEL-28 melanoma = system: SK-MEL-28 melanoma
# SK-OV-3 ovarian = system: SK-OV-3 ovarian
# SN12C renal = system: SN12C renal
# SNB-19 CNS = system: SNB-19 CNS
# SNB-75 CNS = system: SNB-75 CNS
# SW-620 colon = system: SW-620 colon
# T-47D breast = system: T-47D breast
# TK-10 renal = system: TK-10 renal
# U251 glioblastoma = system: U251 glioblastoma
# UACC-257 melanoma = system: UACC-257 melanoma
# UACC-62 melanoma = system: UACC-62 melanoma
# UO-31 renal = system: UO-31 renal
smiles,measurement,setting,value
CN(N=O)C(=O)N[C@@H](C=O)[C@@H](O)[C@H](O)[C@H](O)CO,GI50,786-0 renal,> 100 µM
same,TGI,786-0 renal,> 100 µM
same,GI50,A498 renal,> 100 µM
same,TGI,A498 renal,> 100 µM
same,GI50,A549 NSCLC,> 100 µM
same,TGI,A549 NSCLC,> 100 µM
same,GI50,ACHN renal,> 100 µM
same,TGI,ACHN renal,> 100 µM
same,GI50,BT-549 breast,> 100 µM
same,TGI,BT-549 breast,> 100 µM
same,GI50,CAKI-1 renal,> 100 µM
same,TGI,CAKI-1 renal,> 100 µM
same,GI50,CCRF-CEM leukemia,> 100 µM
same,TGI,CCRF-CEM leukemia,> 100 µM
same,GI50,DU-145 prostate,> 100 µM
same,TGI,DU-145 prostate,> 100 µM
same,GI50,EKVX NSCLC,> 100 µM
same,TGI,EKVX NSCLC,> 100 µM
same,GI50,HCT-116 colon,> 100 µM
same,TGI,HCT-116 colon,> 100 µM
same,GI50,HCT-15 colon,> 100 µM
same,TGI,HCT-15 colon,> 100 µM
same,GI50,HL-60(TB) leukemia,> 100 µM
same,TGI,HL-60(TB) leukemia,> 100 µM
same,GI50,HOP-62 NSCLC,> 100 µM
same,TGI,HOP-62 NSCLC,> 100 µM
same,GI50,HOP-92 NSCLC,> 100 µM
same,TGI,HOP-92 NSCLC,> 100 µM
same,GI50,HS 578T breast,> 100 µM
same,TGI,HS 578T breast,> 100 µM
same,GI50,HT29 colon,> 100 µM
same,TGI,HT29 colon,> 100 µM
same,GI50,IGROV1 ovarian,> 100 µM
same,TGI,IGROV1 ovarian,> 100 µM
same,GI50,K-562 leukemia,> 100 µM
same,TGI,K-562 leukemia,> 100 µM
same,GI50,KM12 colon,> 100 µM
same,TGI,KM12 colon,> 100 µM
same,GI50,LOX IMVI melanoma,> 100 µM
same,TGI,LOX IMVI melanoma,> 100 µM
same,GI50,M14 melanoma,> 100 µM
same,TGI,M14 melanoma,> 100 µM
same,GI50,MALME-3M melanoma,> 100 µM
same,TGI,MALME-3M melanoma,> 100 µM
same,GI50,MCF7 breast,> 100 µM
same,TGI,MCF7 breast,> 100 µM
same,GI50,MDA-MB-231 breast,> 100 µM
same,TGI,MDA-MB-231 breast,> 100 µM
same,GI50,MDA-MB-435 melanoma,> 100 µM
same,TGI,MDA-MB-435 melanoma,> 100 µM
same,GI50,MDA-MB-468 breast,> 100 µM
same,TGI,MDA-MB-468 breast,> 100 µM
same,GI50,MOLT-4 leukemia,> 100 µM
same,TGI,MOLT-4 leukemia,> 100 µM
same,GI50,NCI-H226 lung,> 100 µM
same,TGI,NCI-H226 lung,> 100 µM
same,GI50,NCI-H23 lung,> 100 µM
same,TGI,NCI-H23 lung,> 100 µM
same,GI50,NCI-H322M lung,> 100 µM
same,TGI,NCI-H322M lung,> 100 µM
same,GI50,NCI-H522 lung,> 100 µM
same,TGI,NCI-H522 lung,> 100 µM
same,GI50,NCI/ADR-RES ovarian,> 100 µM
same,TGI,NCI/ADR-RES ovarian,> 100 µM
same,GI50,OVCAR-3 ovarian,> 100 µM
same,TGI,OVCAR-3 ovarian,> 100 µM
same,GI50,OVCAR-4 ovarian,> 100 µM
same,TGI,OVCAR-4 ovarian,> 100 µM
same,GI50,OVCAR-5 ovarian,> 100 µM
same,TGI,OVCAR-5 ovarian,> 100 µM
same,GI50,OVCAR-8 ovarian,> 100 µM
same,TGI,OVCAR-8 ovarian,> 100 µM
same,GI50,PC-3 prostate,> 100 µM
same,TGI,PC-3 prostate,> 100 µM
same,GI50,RPMI-8226 leukemia,> 100 µM
same,TGI,RPMI-8226 leukemia,> 100 µM
same,GI50,RXF 393 renal,> 100 µM
same,TGI,RXF 393 renal,> 100 µM
same,GI50,SF-268 CNS,> 100 µM
same,TGI,SF-268 CNS,> 100 µM
same,GI50,SF-295 CNS,> 100 µM
same,TGI,SF-295 CNS,> 100 µM
same,GI50,SF-539 CNS,> 100 µM
same,TGI,SF-539 CNS,> 100 µM
same,GI50,SK-MEL-2 melanoma,> 100 µM
same,TGI,SK-MEL-2 melanoma,> 100 µM
same,GI50,SK-MEL-28 melanoma,> 100 µM
same,TGI,SK-MEL-28 melanoma,> 100 µM
same,GI50,SK-OV-3 ovarian,> 100 µM
same,TGI,SK-OV-3 ovarian,> 100 µM
same,GI50,SN12C renal,> 100 µM
same,TGI,SN12C renal,> 100 µM
same,GI50,SNB-19 CNS,> 100 µM
same,TGI,SNB-19 CNS,> 100 µM
same,GI50,SNB-75 CNS,> 100 µM
same,TGI,SNB-75 CNS,> 100 µM
same,GI50,SW-620 colon,> 100 µM
same,TGI,SW-620 colon,> 100 µM
same,GI50,T-47D breast,> 100 µM
same,TGI,T-47D breast,> 100 µM
same,GI50,TK-10 renal,> 100 µM
same,TGI,TK-10 renal,> 100 µM
same,GI50,U251 glioblastoma,> 100 µM
same,TGI,U251 glioblastoma,> 100 µM
same,GI50,UACC-257 melanoma,> 100 µM
same,TGI,UACC-257 melanoma,> 100 µM
same,GI50,UACC-62 melanoma,> 100 µM
same,TGI,UACC-62 melanoma,> 100 µM
same,GI50,UO-31 renal,> 100 µM
same,TGI,UO-31 renal,> 100 µM
